# Data: ChEMBL document CHEMBL1148617, “Design, synthesis, and structure-activity relationships of 1-,3-,8-, and 9-substituted-9-deazaxanthines at the human A2B adenosine receptor” (J Med Chem, 2006)
# Assays:
# Adenosine receptor A2b = target: T1, Adenosine receptor A2b (Homo sapiens, UniProt P29275)
# T1 sequence (P29275 whole entry): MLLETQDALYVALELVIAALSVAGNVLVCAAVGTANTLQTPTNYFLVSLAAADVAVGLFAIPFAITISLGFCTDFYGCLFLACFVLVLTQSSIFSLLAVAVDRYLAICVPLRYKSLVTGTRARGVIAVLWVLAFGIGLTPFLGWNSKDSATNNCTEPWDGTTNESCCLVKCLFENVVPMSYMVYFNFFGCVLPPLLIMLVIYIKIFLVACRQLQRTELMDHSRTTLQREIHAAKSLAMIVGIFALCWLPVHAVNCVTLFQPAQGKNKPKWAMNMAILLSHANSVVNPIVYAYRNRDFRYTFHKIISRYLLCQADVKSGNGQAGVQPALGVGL
# Description: Binding affinity to recombinant human adenosine A2B receptor
# Adenosine receptor A1 [1] = target: T2, Adenosine receptor A1 (Homo sapiens, UniProt P30542)
# T2 sequence (P30542 whole entry): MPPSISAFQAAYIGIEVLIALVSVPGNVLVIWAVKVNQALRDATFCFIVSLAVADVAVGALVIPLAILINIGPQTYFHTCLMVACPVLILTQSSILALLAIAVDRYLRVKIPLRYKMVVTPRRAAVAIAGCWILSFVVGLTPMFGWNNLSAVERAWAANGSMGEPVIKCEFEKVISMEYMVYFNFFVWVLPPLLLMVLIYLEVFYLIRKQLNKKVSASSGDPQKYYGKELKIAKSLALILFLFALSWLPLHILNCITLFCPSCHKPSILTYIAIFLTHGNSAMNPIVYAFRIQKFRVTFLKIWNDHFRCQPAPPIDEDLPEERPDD
# Description: Binding affinity to recombinant human adenosine A1 receptor
# Adenosine receptor A2a [2] = target: T3, Adenosine receptor A2a (Homo sapiens, UniProt P29274)
# Description: Binding affinity to recombinant human adenosine A2A receptor
# Adenosine receptor A2a [3] = target: T4, Adenosine receptor A2a (Rattus norvegicus, UniProt P30543); assay: Binding affinity to rat adenosine A2A receptor
# Adenosine receptor A1 [4] = target: T5, Adenosine receptor A1 (Rattus norvegicus, UniProt P25099); assay: Binding affinity to rat adenosine A1 receptor
# T5 sequence (P25099 whole entry): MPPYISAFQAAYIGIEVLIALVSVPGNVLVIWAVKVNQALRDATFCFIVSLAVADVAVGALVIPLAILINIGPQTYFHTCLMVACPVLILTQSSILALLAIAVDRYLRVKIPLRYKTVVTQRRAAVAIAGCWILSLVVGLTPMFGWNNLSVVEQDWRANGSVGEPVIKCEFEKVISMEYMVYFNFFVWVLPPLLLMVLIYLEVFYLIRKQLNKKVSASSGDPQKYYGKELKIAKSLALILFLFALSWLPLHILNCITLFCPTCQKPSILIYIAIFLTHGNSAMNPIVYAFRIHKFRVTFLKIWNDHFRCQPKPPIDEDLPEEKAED
# Adenosine receptor A3 = target: T6, Adenosine receptor A3 (Homo sapiens, UniProt P0DMS8)
# T6 sequence (P0DMS8 whole entry): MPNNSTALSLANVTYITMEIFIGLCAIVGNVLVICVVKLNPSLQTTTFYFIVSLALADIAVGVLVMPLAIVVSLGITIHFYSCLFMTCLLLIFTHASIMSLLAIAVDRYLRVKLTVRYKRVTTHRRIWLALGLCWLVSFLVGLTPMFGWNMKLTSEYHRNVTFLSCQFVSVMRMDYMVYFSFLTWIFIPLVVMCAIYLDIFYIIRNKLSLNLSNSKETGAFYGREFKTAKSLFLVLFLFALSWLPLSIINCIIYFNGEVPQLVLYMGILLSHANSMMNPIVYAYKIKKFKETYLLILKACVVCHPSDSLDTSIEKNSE
# Description: Binding affinity to recombinant human adenosine A3 receptor
# Adenosine receptor A2a [5] = target: T3, Adenosine receptor A2a; assay: Displacement of [3H]ZM-241385 from recombinant human adenosine A2A receptor expressed in HeLa cells at 0.1 uM
# [6] = target: T7, Adenosine receptor A2b (Homo sapiens) (UniProt P29275); assay: Displacement of [3H]DPCPX from recombinant human adenosine A2B receptor expressed in HEK293 cells at 0.01 uM
# T7 sequence (whole entry): T1 sequence (P29275 whole entry)
# [7] = target: T7, Adenosine receptor A2b (Homo sapiens); assay: Displacement of [3H]DPCPX from recombinant human adenosine A2B receptor expressed in HEK293 cells at 0.1 uM; assay type: cell-based
# Adenosine receptor A2a [8] = target: T4, Adenosine receptor A2a; assay: Antagonist potency against adenosine A2A receptor of Sprague-Dawley rat aortic smooth muscle; assay type: functional; conditions: read-out: pA2 (converted)
# [9] = target: T8, Adenosine receptor A3 (Homo sapiens) (UniProt P0DMS8); assay: Displacement of [3H]NECA from recombinant human adenosine A3 receptor expressed in HeLa cells at 1uM; assay type: cell-based
# T8 sequence (whole entry): T6 sequence (P0DMS8 whole entry)
# T3 sequence (P29274 whole entry): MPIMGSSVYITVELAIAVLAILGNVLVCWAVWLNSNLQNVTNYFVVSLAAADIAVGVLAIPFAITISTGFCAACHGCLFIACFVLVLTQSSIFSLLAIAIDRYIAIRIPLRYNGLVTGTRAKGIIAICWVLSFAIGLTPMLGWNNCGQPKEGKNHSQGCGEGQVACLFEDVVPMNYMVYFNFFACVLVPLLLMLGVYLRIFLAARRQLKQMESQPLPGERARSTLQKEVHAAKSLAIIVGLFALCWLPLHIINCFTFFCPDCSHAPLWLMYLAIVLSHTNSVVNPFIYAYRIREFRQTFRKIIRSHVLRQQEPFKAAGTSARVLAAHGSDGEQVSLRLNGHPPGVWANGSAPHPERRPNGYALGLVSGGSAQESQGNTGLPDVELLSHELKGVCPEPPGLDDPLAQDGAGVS
# T4 sequence (P30543 whole entry): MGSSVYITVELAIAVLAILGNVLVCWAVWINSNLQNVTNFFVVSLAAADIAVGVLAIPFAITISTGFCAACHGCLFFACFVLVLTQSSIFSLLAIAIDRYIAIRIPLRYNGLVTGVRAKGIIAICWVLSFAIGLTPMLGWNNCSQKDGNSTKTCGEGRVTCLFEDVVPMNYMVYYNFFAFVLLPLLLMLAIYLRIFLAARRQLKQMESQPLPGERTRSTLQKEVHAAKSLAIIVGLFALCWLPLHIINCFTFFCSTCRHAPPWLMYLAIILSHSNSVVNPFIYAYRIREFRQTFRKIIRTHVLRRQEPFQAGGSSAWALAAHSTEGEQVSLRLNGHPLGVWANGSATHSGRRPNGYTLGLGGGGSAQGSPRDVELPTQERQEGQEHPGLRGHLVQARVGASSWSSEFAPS
smiles,measurement,setting,value
CCCn1c(=O)c2[nH]c(-c3ccc(OCC(=O)Nc4ccccc4)cc3)nc2n(CCC)c1=O,Ki,Adenosine receptor A2b,1.51 nM
same,Ki,Adenosine receptor A1 [1],40.7 nM
same,Ki,Adenosine receptor A2a [2],2.24 nM
CCCn1c(=O)c2[nH]c(-c3ccc(OCC(=O)O)cc3)nc2n(CCC)c1=O,Ki,Adenosine receptor A2a [3],2240 nM
same,Ki,Adenosine receptor A1 [4],63.1 nM
same,Ki,Adenosine receptor A3,3.98 µM
CCCn1c(=O)c2[nH]c(-c3ccc(OCC(=O)NCc4ccccc4)cc3)nc2n(CCC)c1=O,Ki,Adenosine receptor A1 [1],63.1 nM
same,Ki,Adenosine receptor A3,0.141 µM
same,Ki,Adenosine receptor A2a [2],20 nM
Cn1c(=O)c2[nH]c(-c3ccc(OCC(=O)Nc4ccccc4)cc3)cc2n(C)c1=O,inhibition,Adenosine receptor A2a [5],10%
same,Ki,Adenosine receptor A1 [1],240 nM
same,inhibition,[6],44%
same,inhibition,[7],91%
CC(Oc1ccc(-c2cc3c([nH]2)c(=O)n(C)c(=O)n3C)cc1)C(=O)Nc1ccccc1 (stereo not given),inhibition,Adenosine receptor A2a [5],60%
same,Ki,Adenosine receptor A2b,4.79 nM
same,Ki,Adenosine receptor A1 [1],7.76 nM
same,inhibition,[6],73%
same,Ki,Adenosine receptor A3,0.912 µM
same,Ki,Adenosine receptor A2a [2],47.9 nM
same,inhibition,[7],99%
CCCn1c(=O)c2[nH]c(-c3ccc(OCC(=O)Nc4ccc(F)cc4)cc3)nc2n(CCC)c1=O,Ki,Adenosine receptor A1 [1],18.2 nM
Cn1c(=O)c2[nH]c(-c3ccc(OCC(=O)Nc4ccc(C#N)cc4)cc3)cc2n(C)c1=O,inhibition,Adenosine receptor A2a [5],47%
same,Ki,Adenosine receptor A1 [1],4.27 nM
same,inhibition,[6],60%
same,inhibition,[7],91%
same,Kb,Adenosine receptor A2a [8],43.7 nM
CCCn1c(=O)c2[nH]c(-c3ccc(OCC(=O)Nc4ccc(Cl)cc4)cc3)c(Cl)c2n(CCC)c1=O,inhibition,Adenosine receptor A2a [5],28%
same,Ki,Adenosine receptor A2b,22.9 nM
same,inhibition,[6],17%
same,Ki,Adenosine receptor A2a [2],89.1 nM
same,inhibition,[7],80%
Cn1c(=O)c2[nH]c(-c3ccc(OCC(=O)Nc4ccc(F)cc4)cc3)cc2n(C)c1=O,inhibition,Adenosine receptor A2a [5],41%
same,Ki,Adenosine receptor A1 [1],14.8 nM
same,inhibition,[6],72%
same,inhibition,[7],100%
same,inhibition,[9],20%
same,Kb,Adenosine receptor A2a [8],51.3 nM
CCCn1c(=O)c2[nH]c(-c3ccc(OCC(=O)Nc4ccc(C(=O)OCC)cc4)cc3)cc2n(C)c1=O,inhibition,Adenosine receptor A2a [5],9%
same,Ki,Adenosine receptor A2b,11.7 nM
same,inhibition,[6],12%
same,Ki,Adenosine receptor A2a [2],2630 nM
same,inhibition,[7],88%
COc1cc(OCC(=O)Nc2ccc(Br)cc2)ccc1-c1cc2c([nH]1)c(=O)n(C)c(=O)n2C,inhibition,Adenosine receptor A2a [5],20%
same,Ki,Adenosine receptor A1 [1],32.4 nM
same,inhibition,[6],60%
same,Ki,Adenosine receptor A3,10.7 µM
same,inhibition,[7],83%
same,Kb,Adenosine receptor A2a [8],933 nM
CCCn1c(=O)c2[nH]c(-c3ccc(OCC(=O)Nc4ccc(F)cc4)cc3)cc2n(C)c1=O,inhibition,Adenosine receptor A2a [5],47%
same,Ki,Adenosine receptor A2b,5.62 nM
same,inhibition,[6],57%
same,Ki,Adenosine receptor A2a [2],66.1 nM
same,inhibition,[7],94%
CCCn1c(=O)c2[nH]c(-c3ccc(OCC(=O)Nc4ccc(Br)cc4)cc3)nc2n(CCC)c1=O,Ki,Adenosine receptor A2b,2.4 nM
same,Ki,Adenosine receptor A3,2.34 µM
same,Ki,Adenosine receptor A2a [2],1660 nM
CCCn1c(=O)c2[nH]c(-c3ccc(OCC(=O)Nc4ccc(OC)cc4)cc3)c(Cl)c2n(CCC)c1=O,inhibition,Adenosine receptor A2a [5],45%
same,Ki,Adenosine receptor A2b,27.5 nM
same,inhibition,[6],15%
same,Ki,Adenosine receptor A2a [2],44.7 nM
same,inhibition,[7],70%
CCCn1c(=O)c2[nH]c(-c3ccc(OCC(=O)Nc4ccc(F)cc4)cc3)cc2n(CCC)c1=O,inhibition,Adenosine receptor A2a [5],62%
same,Ki,Adenosine receptor A2b,3.31 nM
same,inhibition,[6],70%
same,Ki,Adenosine receptor A2a [2],12 nM
same,inhibition,[7],96%
CCCn1c(=O)c2[nH]c(-c3ccc(OCC(=O)Nc4ccc(CC#N)cc4)cc3)cc2n(CCC)c1=O,inhibition,Adenosine receptor A2a [5],46%
same,Ki,Adenosine receptor A2b,11.2 nM
same,inhibition,[6],34%
same,Ki,Adenosine receptor A2a [2],39.8 nM
same,inhibition,[7],86%
Cn1c(=O)c2[nH]c(-c3cccc(OCC(=O)Nc4ccc(Br)cc4)c3)cc2n(C)c1=O,inhibition,Adenosine receptor A2a [5],45%
same,Ki,Adenosine receptor A2b,44.7 nM
same,inhibition,[6],15%
same,Ki,Adenosine receptor A2a [2],67.6 nM
same,inhibition,[7],73%
CCCn1c(=O)c2[nH]c(-c3ccc(OCC(=O)Nc4ccc(-c5ccccc5)cc4)cc3)cc2n(C)c1=O,inhibition,Adenosine receptor A2a [5],15%
same,Ki,Adenosine receptor A1 [1],11 nM
same,inhibition,[6],39%
same,Ki,Adenosine receptor A3,12.3 µM
same,inhibition,[7],93%
same,Kb,Adenosine receptor A2a [8],468 nM
CCCn1c(=O)c2[nH]c(-c3ccc(OCC(=O)Nc4ccccc4Cl)cc3)c(Cl)c2n(CCC)c1=O,inhibition,Adenosine receptor A2a [5],23%
same,Ki,Adenosine receptor A2b,83.2 nM
same,inhibition,[6],5%
same,Ki,Adenosine receptor A2a [2],263 nM
same,inhibition,[7],44%
CCCn1c(=O)c2[nH]c(-c3ccc(OCC(=O)Nc4ccc(C(C)(C)C)cc4)cc3)cc2n(CCC)c1=O,inhibition,Adenosine receptor A2a [5],47%
same,Ki,Adenosine receptor A2b,7.94 nM
same,inhibition,[6],51%
same,Ki,Adenosine receptor A2a [2],79.4 nM
same,inhibition,[7],94%
CCCn1c(=O)c2[nH]c(-c3ccc(OCC(=O)Nc4ccc(CC(=O)O)cc4)cc3)cc2n(CCC)c1=O,inhibition,Adenosine receptor A2a [5],28%
same,Ki,Adenosine receptor A2b,33.9 nM
same,inhibition,[6],14%
same,Ki,Adenosine receptor A2a [2],224 nM
same,inhibition,[7],87%
Cn1c(=O)c2[nH]c(-c3ccc(OCC(=O)Nc4nncs4)cc3)cc2n(C)c1=O,inhibition,Adenosine receptor A2a [5],43%
same,Ki,Adenosine receptor A2b,15.1 nM
same,inhibition,[6],36%
same,Ki,Adenosine receptor A2a [2],16.2 nM
same,inhibition,[7],81%
CCCn1c(=O)c2nc(-c3ccc(OCC(=O)Nc4ccc(C)cc4)cc3)[nH]c2n(CCC)c1=O,Ki,Adenosine receptor A2b,1.91 nM
same,Ki,Adenosine receptor A2a [3],129 nM
Cn1c(=O)c2[nH]c(-c3ccc(OCC(=O)Nc4ccc(Br)cc4)cc3)cc2n(C)c1=O,inhibition,Adenosine receptor A2a [5],12%
same,Ki,Adenosine receptor A1 [1],18.2 nM
same,inhibition,[6],84%
same,inhibition,[7],90%
same,inhibition,[9],8%
same,Kb,Adenosine receptor A2a [8],126 nM
CCCn1c(=O)c2[nH]c(-c3ccc(OCC(=O)n4ccc(N)n4)cc3)cc2n(CCC)c1=O,inhibition,Adenosine receptor A2a [5],65%
same,Ki,Adenosine receptor A2b,17 nM
same,inhibition,[6],30%
same,Ki,Adenosine receptor A2a [2],26.3 nM
same,inhibition,[7],83%
CCCn1c(=O)c2[nH]c(-c3ccc(OC(C)(C)C(=O)Nc4ccc(F)cc4)cc3)cc2n(CCC)c1=O,inhibition,Adenosine receptor A2a [5],32%
same,Ki,Adenosine receptor A2b,8.91 nM
same,inhibition,[6],50%
same,Ki,Adenosine receptor A2a [2],17 nM
same,inhibition,[7],97%
Cn1c(=O)c2[nH]c(-c3ccc(OCC(=O)Nc4ccc([N+](=O)[O-])cc4)cc3)cc2n(C)c1=O,inhibition,Adenosine receptor A2a [5],30%
same,Ki,Adenosine receptor A2b,6.92 nM
same,inhibition,[6],52%
same,Ki,Adenosine receptor A2a [2],81.3 nM
same,inhibition,[7],82%
